In patent US8629157B2, “Pyrrolidine compounds which modulate the CB2 receptor” (Boehringer Ingelheim International GmbH, priority 2009, dated 2014) one finds EC50 data, which are given here for 35 compounds.

One assay deals with human CB2R (Homo sapiens, UniProt P34972). The assay can be described thus: CB2R mediated modulation of cAMP synthesis. It is filed as cell-based.
Sequence of human CB2R (P34972 whole entry): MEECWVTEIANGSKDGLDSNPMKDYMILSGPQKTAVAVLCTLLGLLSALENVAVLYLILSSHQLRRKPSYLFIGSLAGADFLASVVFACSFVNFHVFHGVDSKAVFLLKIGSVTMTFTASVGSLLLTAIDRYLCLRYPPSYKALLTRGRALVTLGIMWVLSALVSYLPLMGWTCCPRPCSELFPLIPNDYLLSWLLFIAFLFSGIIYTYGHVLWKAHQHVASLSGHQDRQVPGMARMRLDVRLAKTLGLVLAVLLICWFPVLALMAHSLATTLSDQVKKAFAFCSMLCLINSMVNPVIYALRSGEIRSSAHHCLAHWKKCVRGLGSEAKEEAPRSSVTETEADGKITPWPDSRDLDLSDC
Conditions: not given
The procedure: B. CB2R Mediated Modulation of cAMP Synthesis:
Compounds of the invention were evaluated for their CB2 agonist or inverse agonistic activity in accordance with the following experimental method.
CHO cells expressing human CB2R (Euroscreen) were plated at a density of 5000 cells per well in 384 well plates and incubated overnight at 37° C. After removing the media, the cells were treated with test compounds diluted in stimulation buffer containing 1 mM IBMX, 0.25% BSA and 10 uM Forskolin. The assay was incubated for 30 minutes at 37° C. Cells were lysed and the cAMP concentration was measured using DiscoverX-XS cAMP kit, following the manufacturer's protocol. In this setting, agonists will decrease forskolin induced production of cAMP while inverse agonists will further increase forskolin induced production of cAMP. EC50 of agonists were calculated as follows. The maximal amount of cAMP produced by forskolin compared to the level of cAMP inhibited by 1 uM CP55940 is defined as 100%. […] Data was analyzed using a four-parameter logistic model. (Model 205 of XLfit 4.0).
For orientation: EC50 means the midpoint of the concentration-response curve. Consider `CC(C)(C)c1cc(NC(=O)[C@@H]2CCC(=O)N2c2ccc(F)c(F)c2)no1` [(S)-1-(3,4-Difluoro-phenyl)-5-oxo-pyrrolidine-2-carboxylic acid (5-tert-butyl-isoxazol-3-yl)-amide], for which the EC50 was 64.2 nM.
Compound `CC(C)(C)c1cc(NC(=O)[C@@H]2CCC(=O)N2c2ccc(Cl)cc2F)on1` [(S)-1-(4-Chloro-2-fluoro-phenyl)-5-oxo-pyrrolidine-2-carboxylic acid (3-tert-butyl-isoxazol-5-yl)-amide] came in with an EC50 of 82 nM.
`CC(C)(C)c1cc(NC(=O)[C@@H]2CCCN2Cc2ccc(Cl)cc2)on1` [(S)-1-(4-Chloro-benzyl)-pyrrolidine-2-carboxylic acid (3-tert-butyl-isoxazol-5-yl)-amide] had an EC50 of 2.28 nM.
`CC(C)(C)c1cc(NC(=O)[C@@H]2C[C@@H](O)CN2Cc2ccc(F)c(F)c2)on1` [(2S,4R)-1-(3,4-Difluoro-benzyl)-4-hydroxy-pyrrolidine-2-carboxylic acid (3-tert-butyl-isoxazol-5-yl)-amide] came in with a concentration for a half-maximal effect (EC50) of 6.88 nM.
The same measure, in the same setting: the result for `CC(C)(C)c1cc(NC(=O)[C@@H]2C[C@@H](O)CN2C2CCCC2)no1` [(2S,4R)-1-Cyclopentyl-4-hydroxy-pyrrolidine-2-carboxylic acid (5-tert-butyl-isoxazol-3-yl)-amide] reads 23.2 nM; that for `CC(C)(C)c1cc(NC(=O)[C@@H]2CCC(=O)N2c2ccc(Cl)cn2)on1` [(S)-1-(5-Chloro-pyridin-2-yl)-5-oxo-pyrrolidine-2-carboxylic acid (3-tert-butyl-isoxazol-5-yl)-amide], 3.44 nM; that for `CC(C)(CO)c1cc(NC(=O)[C@@H]2CCC(=O)N2c2ccc(C(F)(F)F)cc2)no1` [(S)-5-Oxo-1-(4-trifluoromethyl-phenyl)-pyrrolidine-2-carboxylic acid [5-(2-hydroxy-1,1-dimethyl-ethyl)-isoxazol-3-yl]-amide], 80.8 nM.
Same read-out and setting: the result for `CC(C)(C)c1csc(NC(=O)[C@@H]2CCCN2C2CCOCC2)n1` [(S)-1-(Tetrahydro-pyran-4-yl)-pyrrolidine-2-carboxylic acid (4-tert-butyl-thiazol-2-yl)-amide] reads 279 nM; that for `CC(C)(C)c1cc(NC(=O)[C@@H]2CCCN2C2CC2)on1` [(S)-1-Cyclopropyl-pyrrolidine-2-carboxylic acid (3-tert-butyl-isoxazol-5-yl)-amide], 3.19 nM.
`CC(C)(C)c1cc(NC(=O)[C@@H]2CCCN2C2CCCCC2)on1` [(S)-1-Cyclohexyl-pyrrolidine-2-carboxylic acid (3-tert-butyl-isoxazol-5-yl)-amide] gave an EC50 of 0.173 nM.
Still for that read-out and setting: the result for `CCC(C)c1ccc(NC(=O)[C@@H]2CCC(=O)N2c2ncc(C(F)(F)F)cc2Cl)cc1` (some centres unmarked) reads 28.1 nM; that for `CC(C)(CO)c1cc(NC(=O)[C@@H]2C[C@@H](O)CN2c2ccc(Cl)cc2)on1` [(2S,4R)-1-(4-Chloro-phenyl)-4-hydroxy-pyrrolidine-2-carboxylic acid [3-(2-hydroxy-1,1-dimethyl-ethyl)-isoxazol-5-yl]-amide], 196 nM.
For the compound `CC(C)(C)Cc1cc(NC(=O)[C@@H]2CCCN2CC2CC2)on1` [(S)-1-Cyclopropylmethyl-pyrrolidine-2-carboxylic acid [3-(2,2-dimethyl-propyl)-isoxazol-5-yl]-amide], the EC50 amounted to 22.3 nM.
The same measure, in the same setting: to `CC(C)(C)c1cc(NC(=O)[C@@H]2CCC(=O)N2c2ccc(C(F)F)cc2)on1` [(S)-1-(4-Difluoromethyl-phenyl)-5-oxo-pyrrolidine-2-carboxylic acid (3-tert-butyl-isoxazol-5-yl)-amide] belongs 15.2 nM; to `CCc1sc(NC(=O)[C@@H]2CCCN2CC2CCOCC2)nc1-c1ccccc1` [(S)-1-(Tetrahydro-pyran-4-ylmethyl)-pyrrolidine-2-carboxylic acid (5-ethyl-4-phenyl-thiazol-2-yl)-amide], 10.9 nM; to `CC(C)(C)c1cc(NC(=O)[C@@H]2C[C@@H](O)CN2C2CCCC2)on1` [(2S,4R)-1-Cyclopentyl-4-hydroxy-pyrrolidine-2-carboxylic acid (3-tert-butyl-isoxazol-5-yl)-amide], 61.9 nM.
Same read-out and setting: the result for `CC(C)(C)c1cc(NC(=O)[C@]2(C)CCCN2c2ccc(C(F)(F)F)cn2)no1` [(S)-2-Methyl-1-(5-trifluoromethyl-pyridin-2-yl)-pyrrolidine-2-carboxylic acid (5-tert-butyl-isoxazol-3-yl)-amide] reads 0.015 nM.
On to `O=C(Nc1ccc(C(F)(F)F)cn1)[C@@H]1CCCN1CC1CCOCC1` [(S)-1-(Tetrahydro-pyran-4-ylmethyl)-pyrrolidine-2-carboxylic acid (5-trifluoromethyl-pyridin-2-yl)-amide], for which the EC50 was determined as 212 nM.
Same read-out and setting: to `O=C(Nc1nc2cc(Cl)c(Cl)cc2[nH]1)[C@@H]1CCCN1CC1CCOCC1` [(S)-1-(Tetrahydro-pyran-4-ylmethyl)-pyrrolidine-2-carboxylic acid (5,6-dichloro-1H-benzimidazol-2-yl)-amide] belongs 56.2 nM; to `CC(C)(C)c1cc(NC(=O)[C@@H]2CCC(=O)N2c2ncc(C(F)(F)F)cc2Cl)no1` [(S)-1-(3-chloro-5-trifluoromethyl-pyridin-2-yl)-5-oxo-pyrrolidine-2-carboxylic acid (5-tert-butyl-isoxazol-3-yl)-amide], 6.5 nM; to `CC(C)(C)OC(=O)CN1CCC[C@H]1C(=O)Nc1cc(C(C)(C)C)no1` [[(S)-2-(3-tert-Butyl-isoxazol-5-ylcarbamoyl)-pyrrolidin-1-yl]-acetic acid tert-butyl ester], 0.1 nM.
In turn, `O=C(Nc1ccc(C(F)(F)F)cn1)C1CCCN1c1ccc(C(F)(F)F)cn1` (centres unmarked) [1-(5-Trifluoromethyl-pyridin-2-yl)-pyrrolidine-2-carboxylic acid (5-trifluoromethyl-pyridin-2-yl)-amide] showed an EC50 of 328 nM.
Still for that read-out and setting: to `CC(C)(C)c1nnc(NC(=O)[C@@H]2C[C@@H](O)CN2CC2CCOCC2)s1` [(2S,4R)-4-Hydroxy-1-(tetrahydro-pyran-4-ylmethyl)-pyrrolidine-2-carboxylic acid (5-tert-butyl-1,3,4-thiadiazol-2-yl)-amide] belongs 69.8 nM; to `CC(C)(C)c1nc(NC(=O)[C@@H]2CCCN2c2ccc(Cl)cc2)sc1C#N` [(S)-1-(4-Chloro-phenyl)-pyrrolidine-2-carboxylic acid (4-tert-butyl-5-cyano-thiazol-2-yl)-amide], 31.7 nM.
Same read-out and setting: to `O=C(Nc1nc2cc(Cl)ccc2[nH]1)[C@@H]1CCCN1c1ccc(Cl)cc1` [(S)-1-(4-Chloro-phenyl)-pyrrolidine-2-carboxylic acid (5-chloro-1H-benzimidazol-2-yl)-amide] belongs 2.16 nM; to `CC(C)(C)c1cc(NC(=O)[C@@H]2CCC(=O)N2c2ccc(Cl)c(Cl)c2)no1` [(S)-1-(3,4-Dichloro-phenyl)-5-oxo-pyrrolidine-2-carboxylic acid (5-tert-butyl-isoxazol-3-yl)-amide], 49.7 nM.
`CC(C)(C)c1cc(NC(=O)[C@@H]2CCCN2CC2CCOC2)on1` (stereo partly drawn) [(S)-1-(Tetrahydro-furan-3-ylmethyl)-pyrrolidine-2-carboxylic acid (3-tert-butyl-isoxazol-5-yl)-amide] returned an EC50 of 0.116 nM.
On the same count and under the same terms, the result for `O=C(NCCC1CCOCC1)[C@@H]1CCCN1c1ccc(Cl)cc1` [(S)-1-(4-Chloro-phenyl)-pyrrolidine-2-carboxylic acid [2-(tetrahydro-pyran-4-yl)-ethyl]-amide] reads 105 nM; that for `CC(C)(C)c1cc(NC(=O)[C@@H]2CCCN2Cc2ccc(OC(F)F)cc2)on1` [(S)-1-(4-Difluoromethoxy-benzyl)-pyrrolidine-2-carboxylic acid (3-tert-butyl-isoxazol-5-yl)-amide], 8.04 nM; that for `CC(C)(C)c1cc(NC(=O)[C@@H]2CCC(=O)N2c2cccc(Cl)c2)on1` [(S)-1-(3-Chloro-phenyl)-5-oxo-pyrrolidine-2-carboxylic acid (3-tert-butyl-isoxazol-5-yl)-amide], 203 nM.
Still for that read-out and setting: to `CC(C)(C)c1cc(NC(=O)[C@@H]2CCC(=O)N2c2cccc(F)c2F)on1` [(S)-1-(2,3-Difluoro-phenyl)-5-oxo-pyrrolidine-2-carboxylic acid (3-tert-butyl-isoxazol-5-yl)-amide] belongs 261 nM; to `CC(C)(C)c1cc(NC(=O)[C@@H]2CC(F)(F)CN2C(=O)C2CCC(F)(F)CC2)no1` [(S)-1-(4,4-Difluoro-cyclohexanecarbonyl)-4,4-difluoro-pyrrolidine-2-carboxylic acid (5-tert-butyl-isoxazol-3-yl)-amide], 226 nM; to `CC(C)(C)c1cc(NC(=O)[C@@H]2CCC(=O)N2c2ccc(F)c(Cl)c2)on1` [(S)-1-(3-Chloro-4-fluoro-phenyl)-5-oxo-pyrrolidine-2-carboxylic acid (3-tert-butyl-isoxazol-5-yl)-amide], 26.7 nM.

Still in this assay, the particulars now being: CHO cells expressing human CB2R; inhibition of forskolin-stimulated cAMP synthesis; mean; read-out: CB2 CAMP @ EC50 nM (mean).
`CC(C)(C)c1cc(NC(=O)[C@@H]2CCC(=O)N2c2cccc(Cl)c2)no1` [(S)-1-(3-Chloro-phenyl)-5-oxo-pyrrolidine-2-carboxylic acid (5-tert-butyl-isoxazol-3-yl)-amide]: the EC50 came out at 296 nM.
On to `COc1ccc(-c2nsc(NC(=O)[C@@H]3CCC(=O)N3c3ccc(C(F)(F)F)cc3)n2)cc1` [(S)-5-Oxo-1-(4-trifluoromethyl-phenyl)-pyrrolidine-2-carboxylic acid [3-(4-methoxy-phenyl)-1,2,4-thiadiazol-5-yl]-amide], for which the EC50 is 178 nM.
